Test systems include A549 NSCLC; DMS 114 small cell lung; EKVX NSCLC; M14 melanoma; OVCAR-5 ovarian; RXF 393 renal; SF-295 CNS; SW-620 colon; U251 CNS; SNB-78 CNS.
What all share (assay): growth of human tumour cells (NCI), 48 h

Where “and” joins values, the source holds several entries; their conditions need not be identical. Identical values can stand only once.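 These data come from cells grown in 96-well plates and exposed to compound for 48 hours at five concentrations. At the TGI there is no net growth.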

Turning to `N#Cc1c(N)oc2cc3c(C#N)c(N)oc3cc12`, the TGI in the test with A549 NSCLC, with DMS 114 small cell lung, in the test on EKVX NSCLC, in the test on M14 melanoma, with OVCAR-5 ovarian and in the test with RXF 393 renal was more than 100 µM each time. Further, the TGI in the test on SF-295 CNS, in the test on SW-620 colon and in the test on U251 CNS was more than 100 µM throughout.

On to `C#Cc1c(C)c(/C=C/C(C)=C\C(=O)OC)n(C)c1C`, for which the TGI in the test with A549 NSCLC, in the test on DMS 114 small cell lung, with EKVX NSCLC, in the test with M14 melanoma, with OVCAR-5 ovarian and with SF-295 CNS was more than 100 µM throughout. Also, the TGI in the test with SNB-78 CNS, in the test on SW-620 colon and in the test on U251 CNS was more than 100 µM each time.

Take `CN(C)NC(=O)NC12CC3CC(CC(C3)C1)C2`: the TGI was more than 100 µM with A549 NSCLC; more than 100 µM with EKVX NSCLC; more than 100 µM with OVCAR-5 ovarian; more than 10 µM with RXF 393 renal; more than 100 µM in the test on SF-295 CNS; more than 100 µM in the test with SNB-78 CNS. Besides, the TGI in the test on SW-620 colon and with U251 CNS was more than 100 µM throughout.

Take `O=[N+]([O-])c1ccc(N=P(c2ccccc2)(c2ccccc2)c2ccccc2)n2nnnc12`: the TGI in the test on A549 NSCLC, in the test with DMS 114 small cell lung, in the test on EKVX NSCLC, with M14 melanoma, in the test on OVCAR-5 ovarian and in the test on RXF 393 renal was more than 100 µM in each case. Further, the TGI is 90.2 µM in the test on SF-295 CNS, more than 100 µM in the test on SW-620 colon and more than 100 µM in the test with U251 CNS.

In the case of `COC1=CC(=O)C2(C=C1OC)OC[C@H]1Oc3c(ccc4c3C=CC(C)(C)O4)C(=O)[C@H]12` (stereo partly drawn), the TGI was more than 100 µM in the test with A549 NSCLC; 94.5 µM in the test on DMS 114 small cell lung; more than 100 µM in the test with EKVX NSCLC; more than 100 µM in the test with M14 melanoma; more than 100 µM in the test with OVCAR-5 ovarian; more than 100 µM in the test with RXF 393 renal. Further, the TGI in the test with SNB-78 CNS, in the test on SW-620 colon and in the test on U251 CNS was more than 100 µM each time.

As to `COc1cccc(NC(=O)/C(CS(=O)(=O)CCC(C(C)=O)C(C)=O)=N\NC(C)(C)C)c1`, the TGI with A549 NSCLC, with DMS 114 small cell lung, in the test on EKVX NSCLC, with M14 melanoma, in the test with OVCAR-5 ovarian and with RXF 393 renal was more than 100 µM throughout. Moreover, the TGI with SNB-78 CNS, in the test on SW-620 colon and in the test on U251 CNS was more than 100 µM throughout.

For `Cc1nc2ccccc2c(=O)n1/N=C(\N=Nc1cc(Cl)ccc1Cl)c1ccc(N(C)C)cc1`, the TGI with A549 NSCLC was more than 100 µM; in the test with DMS 114 small cell lung it was 93.6 µM; in the test on EKVX NSCLC, more than 100 µM; in the test on RXF 393 renal it was 81.8 µM; with SW-620 colon it was more than 100 µM; in the test on U251 CNS it was more than 100 µM.

Turning to `COc1cc([C@@H]2c3cc4c(cc3[C@@H](OC3OC5COC(C)OC5C(O)C3O)[C@H]3COC(=O)[C@H]23)OCO4)cc(OC)c1O` (stereo partly drawn), the TGI is 61.4 µM and 108 µM in the test with A549 NSCLC; 24.6 µM and 66.8 µM in the test on DMS 114 small cell lung; 149 µM and 500 µM and 183 µM in the test with EKVX NSCLC; 64.2 µM and 121 µM and 169 µM in the test on OVCAR-5 ovarian; 154 µM and 604 µM in the test with SNB-78 CNS; 54.6 µM and 159 µM in the test with SW-620 colon.

Take `O=C1N(c2ccc(Cl)cc2)C(=O)C2(SC=NN2Cc2ccccc2)N1c1ccc(Cl)cc1` (stereo not drawn): the TGI in the test with A549 NSCLC, with DMS 114 small cell lung, in the test with EKVX NSCLC, in the test with M14 melanoma, in the test with RXF 393 renal and with SNB-78 CNS was more than 100 µM in each case. Further, the TGI in the test on SW-620 colon and in the test on U251 CNS was more than 100 µM in each case.

For `CCOC(=O)C(Oc1ccc(OC)c2c1C(=O)CCC2)c1ccccc1` (stereo not drawn), the TGI in the test with A549 NSCLC, in the test with DMS 114 small cell lung, in the test on EKVX NSCLC, in the test on M14 melanoma, in the test with OVCAR-5 ovarian and in the test on SF-295 CNS was more than 100 µM throughout. In addition, the TGI in the test on SNB-78 CNS, with SW-620 colon and with U251 CNS was more than 100 µM each time.

Take `Cc1ccccc1NC(=O)C(=O)C(C(=O)c1ccccc1F)C1OC(=O)c2ccccc21` (stereo not drawn): the TGI in the test with A549 NSCLC was more than 100 µM; with DMS 114 small cell lung it was 53.3 µM; with EKVX NSCLC it was more than 100 µM; in the test on M14 melanoma it was 30.3 µM; with OVCAR-5 ovarian it was more than 100 µM; in the test with RXF 393 renal, 24.6 µM. The figures for the TGI in the test with SNB-78 CNS, in the test on SW-620 colon and in the test on U251 CNS were 80.8 µM, more than 100 µM and 60.6 µM, respectively.

Consider `COc1cc(O)c(C(=O)C2Cc3ccccc32)c(OC)c1` (stereo not drawn), for which the TGI is more than 100 µM in the test on A549 NSCLC; 97.2 µM in the test on DMS 114 small cell lung; more than 100 µM with M14 melanoma; more than 100 µM in the test with OVCAR-5 ovarian; 69.4 µM with RXF 393 renal; more than 100 µM in the test with SF-295 CNS. The TGI in the test on SNB-78 CNS, with SW-620 colon and with U251 CNS was more than 100 µM throughout.

Regarding `CC(C)(c1ccc(C=O)o1)c1ccc(C(C)(C)c2ccc(C=O)o2)o1`, the TGI in the test on A549 NSCLC, in the test on EKVX NSCLC, in the test on OVCAR-5 ovarian, in the test with RXF 393 renal, in the test on SF-295 CNS and in the test on SNB-78 CNS was more than 100 µM each time. The TGI in the test on SW-620 colon and in the test with U251 CNS was more than 100 µM each time.

As for `O=C1c2c(c3c4ccccc4n(CC4CO4)c3c3[nH]c4ccccc4c23)C(=O)N1Cc1ccccc1` (stereo not drawn), the TGI in the test on A549 NSCLC, with DMS 114 small cell lung, in the test with M14 melanoma, in the test on OVCAR-5 ovarian, with RXF 393 renal and in the test on SF-295 CNS was more than 100 µM each time. Further, the TGI with SNB-78 CNS, in the test on SW-620 colon and in the test on U251 CNS was more than 100 µM each time.

Turning to `N#Cc1sc2nc3c(c(-c4ccccc4)c2c1N)CCCC3`, the TGI was more than 100 µM in the test on A549 NSCLC; more than 100 µM in the test on OVCAR-5 ovarian; more than 100 µM in the test with RXF 393 renal; 43.6 µM with SF-295 CNS; more than 100 µM with SNB-78 CNS; more than 100 µM in the test with SW-620 colon. In the test with U251 CNS, this compound returned a TGI of more than 100 µM.

As for `CCNC(=O)O/N=C1\CCC2[C@@H]3CC=C4C[C@@H](OC(=O)NCC)CC[C@]4(C)C3CC[C@]12C` (stereo partly drawn), the TGI in the test on A549 NSCLC came out at 13.5 µM; in the test on DMS 114 small cell lung, 1.82 µM; in the test on EKVX NSCLC, 4.84 µM; in the test on M14 melanoma, 3.23 µM; with OVCAR-5 ovarian, 17.1 µM; in the test with RXF 393 renal, 11.6 µM. Besides, the TGI with SF-295 CNS was found to be 11.4 µM; in the test on SW-620 colon it was 16.7 µM; in the test with U251 CNS, 9.6 µM.
